Patent publication US4855287A, “Aminoglycoside compounds, processes for production thereof, and pharamaceutical composition containing the same” (Kowa Company, Ltd., priority 1985, dated 1989)
Where two headings read alike, the source gives them in different places.

Assays:
[1] = Test for concentrations in blood, intrarectal administration; parameters: species or system Male rats; details: rat, in vivo
Procedure: Male rats (body weight 250-350 g: n=3) which had been caused to fast for 18 hours prior to administration were anesthetized with pentobarbirtal. After the abdomen was incised, the upper part of the duodenum was tied. Each of the test compounds was dissolved in water so that its concentration became 12.5 mg/ml as its starting antibiotic (the compound of formula II), and the solution was intraduodenally administered to the rats in a dose of 2 ml/kg. After the administration, blood was drawn periodically from the tail vein, and the concentration of the starting antibiotic in the blood was measured by antimicrobial assay and liquid chromatography.
Male rats (body weight 250-350 g: n=3) which had been caused to fast for 18 hours prior to administration were anesthetized with pentobarbirtal. After the abdomen was incised, the lower part of the rectum was tied. Each of the test compounds was administered intrarectally in the same dose in the same manner as in (1) above, and the concentration of the starting antibiotic in the blood was measured in the same way as in (1) above.

[2] = test system: Bacillus subtilis ATCC 6633; assay: Test for antibacterial activity (paper disk, diameter of inhibitory zone, before and after incubation in rat liver/kidney homogenate); type: cell-based; details: 200 mcq/ml, 8 mm paper disk
Procedure: Each of the test compounds shown in the following table was dissolved in a concentration of 200 mcq/ml in a homogenate of a 10% physiological saline solution of an organ of a rat, and incubated at 37° C. for 2 hours. An enzymatic reaction was stopped by adding an equal amount of ethanol. The antibacterial activity of the test compound before incubation was compared with that after incubation. The incubation was carried out in an equal amount mixture of a liver homogenate and a kidney homogenate. The antibacterial activity was measured by a paper disk having a diameter of 8 mm using Bacillus subtilis ATCC 6633 as a test organism, and shown by the diameter of the resulting inhibitory zone.

[3] = ATCC6633, after incubation at 37° C. for 2 hours in rat liver homogenate and kidney homogenate, read-out: Diameter of the inhibitory zone, after incubation
[4] = ATCC6633, before incubation, read-out: Diameter of the inhibitory zone, before incubation

| Structure (SMILES) | Maximum concentration in blood Cmax [1] [µg/mL] | Tmax [1] [min] | zone of inhibition at 200 µg/mL [2, 3] [mm] | zone of inhibition at 200 µg/mL [2, 4] [mm] |
| --- | --- | --- | --- | --- |
| CC(N)C1CCC(N)C(OC2C(N)CC(O)C(N(C)C(=O)CNC(=O)[C@@H](N)CCC(=O)OCCCOC(=O)CC[C@@H](C)[C@H]3CC[C@H]4[C@@H]5CC[C@@H]6C[C@H](O)CC[C@]6(C)[C@H]5C[C@H](O)[C@]34C)C2O)O1 (stereo partly drawn) [Example 20, 2"-N-[γ-O-(3-deoxycholyloxypropyl)-L-glutamyl]-5-de-O-methyl-KA-6606I] | 7.76 | 30 | 21.8 | 14.1 |
| CC(=O)OC1CCC2(C)C(CCC3C2CC(OC(C)=O)C2(C)C(C(C)CCC(=O)OCCCCOC(=O)CCC(N)C(=O)NCC(=O)N(C)C4C(O)CC(N)C(OC5OC(C(C)N)CCC5N)C4O)CCC32)C1 [Example 27, 2"-N-{γ-O-[4-(3,12-di-O-acetyldeoxycholyloxy)butyl]-L-glutamyl}-5-de-O-methyl-KA-6606I] | 5.30 | 30 | 23.2 | 13.5 |
| CCCCCCCCCCCCCCCCCC(=O)NCCCNC(=O)CC[C@H](N)C(=O)NCC(=O)N(C)C1C(O)CC(N)C(OC2OC(C(C)N)CCC2N)C1O (stereo partly drawn) [Example 40, 2"-N-[N^γ -(3-stearoylaminopropyl)-L-glutaminyl]-5-de-O-methyl-KA-6606I] |  |  | 16.6 | 14.1 |
| CC(=O)NCCCNC(=O)CC[C@H](N)C(=O)NCC(=O)N(C)C1C(O)CC(N)C(OC2OC(C(C)N)CCC2N)C1O (stereo partly drawn) [Example 34, 2"-N-[N^γ -(3-acetylaminopropyl)-L-glutaminyl]-5-de-O-methyl-KA-66061] |  |  | 23.1 | 10.7 |
| CCCCCCCCCC(=O)NCCCOC(=O)CC[C@H](N)C(=O)NCC(=O)N(C)C1C(O)CC(N)C(OC2OC(C(C)N)CCC2N)C1O (stereo partly drawn) [Example 28, 2"-N-[γ-O-(3-decanoylaminopropyl)-L-glutamyl]-5-de-O-methyl-KA-6606I] |  |  | 23.9 | 14.6 |
| CCCCCCCCOC(=O)NCCCC[C@H](N)C(=O)NCC(=O)N(C)C1C(O)CC(N)C(OC2OC(C(C)N)CCC2N)C1O (stereo partly drawn) [Example 7, 2"-N-(N^ε -octyloxycarbonyl-L-lysyl)-5-de-O-methyl-KA-6606I] |  |  | 20.7 | 10.5 |
| CCCCCCCCCCNC(=O)CC[C@H](N)C(=O)NCC(=O)N(C)C1C(O)CC(N)C(OC2OC(C(C)N)CCC2N)C1O (stereo partly drawn) [Example 32, 2"-N-(N^γ -decyl-L-glutaminyl)-5-de-O-methyl-KA-6606I] |  |  | 19 | 14.1 |
| CCCCCC(=O)NCCCNC(=O)CC[C@H](N)C(=O)NCC(=O)N(C)C1C(O)CC(N)C(OC2OC(C(C)N)CCC2N)C1O (stereo partly drawn) [Example 36, 2"-N-[N^γ -(3-hexanoylaminopropyl)-L-glutaminyl]-5-de-O-methyl-KA-6606I] |  |  | 22.8 | 10.5 |
| CCCCCCCCCCCCCCCCCC(=O)OCCCCOC(=O)CC[C@H](N)C(=O)NCC(=O)N(C)C1C(O)CC(N)C(OC2OC(C(C)N)CCC2N)C1O (stereo partly drawn) [Example 24, 2"-N-[γ-O-(4-stearoyloxybutyl)-L-glutamyl]-5-de-O-methyl-KA-6606I] |  |  | 22.6 | 16.2 |
| CCCCCCNC(=O)CC[C@H](N)C(=O)NCC(=O)N(C)C1C(O)CC(N)C(OC2OC(C(C)N)CCC2N)C1O (stereo partly drawn) [Example 30, 2"-N-(N^γ-hexyl-L-glutaminyl)-5-de-O-methyl-KA-6606I] |  |  | 19.8 | 15 |
| CCCC(=O)NCCCNC(=O)CC[C@H](N)C(=O)NCC(=O)N(C)C1C(O)CC(N)C(OC2OC(C(C)N)CCC2N)C1O (stereo partly drawn) [Example 35, 2"-N-[N^γ -(3-n-butyrylaminopropyl)-L-glutaminyl]-5de-O-methyl-KA-6606I] |  |  | 20.7 | 10.7 |
| COc1ccc(CSC[C@H](N)C(=O)NCC(=O)N(C)C2C(O)CC(N)C(OC3OC(C(C)N)CCC3N)C2O)cc1 (stereo partly drawn) [Example 51, 2"-N-[S-(p-methoxybenzyl)-L-cysteinyl]-5-de-O-methyl-KA-6606I] |  |  | 25.4 | 18.3 |
| CCCCCCCCCCCCCCCCCC(=O)OCCCOC(=O)CC[C@H](N)C(=O)NCC(=O)N(C)C1C(O)CC(N)C(OC2OC(C(C)N)CCC2N)C1O (stereo partly drawn) [Example 19, 2"-N-[γ-O-(3-stearoyloxypropyl)-L-glutamyl]-5-de-O-methyl-KA-6606I] |  |  | 22.7 | 13.7 |
| CCCCCCCCCCCCCCCCCC(=O)NCC(=O)NCCCC[C@H](N)C(=O)NCC(=O)N(C)C1C(O)CC(N)C(OC2OC(C(C)N)CCC2N)C1O (stereo partly drawn) [Example 6, 2"-N-[N^ε -(N-stearoylglysyl)-L-lysyl]-5-de-O-methyl-KA-6606I] |  |  | 16.6 | 10.5 |
| CCCCCCCCCC(=O)NCCCC[C@H](N)C(=O)NCC(=O)N(C)C1C(O)CC(N)C(OC2OC(C(C)N)CCC2N)C1O (stereo partly drawn) [Example 2, 2"-N-(N^ε -decanoyl-L-lysyl)-5-de-O-methyl-KA-6606I] |  |  | 22 | 15.9 |
| CCCNC(=O)CC[C@H](N)C(=O)NCC(=O)N(C)C1C(O)CC(N)C(OC2OC(C(C)N)CCC2N)C1O (stereo partly drawn) [Example 29, 2"-N-(N^γ -propyl-L-glutaminyl)-5-de-O-methyl-KA-6606I] |  |  | 24.6 | 15.1 |
| CC(N)C1CCC(N)C(OC2C(N)CC(O)C(N(C)C(=O)CNC(=O)[C@@H](N)CCCCNC(=O)CC[C@@H](C)[C@H]3CC[C@H]4[C@@H]5CC[C@@H]6C[C@H](O)CC[C@]6(C)[C@H]5C[C@H](O)[C@]34C)C2O)O1 (stereo partly drawn) [Example 4, 2"-N-(N^ε -deoxycholyl-L-lysyl)-5-de-O-methyl-KA-6606I] |  |  | 19.8 | 12.7 |
| CCCCCCCCCC(=O)NCCCNC(=O)CC[C@H](N)C(=O)NCC(=O)N(C)C1C(OC)CC(N)C(OC2OC(CNC)CCC2N)C1O (stereo partly drawn) [Example 57, 2"-N-[N^γ -(3-decanoylaminopropyl)-L-glutaminyl]-KA-7038I] |  |  | 23 | 15.9 |
| CC(C)OCCCNC(=O)CC[C@H](N)C(=O)NCC(=O)N(C)C1C(O)CC(N)C(OC2OC(C(C)N)CCC2N)C1O (stereo partly drawn) [Example 43, 2"-N-[N^γ -(3-isopropoxypropyl)-L-glutaminyl]-5-de-O-methyl-KA-6606I] |  |  | 18.4 | 10.8 |
| CCCCCCCCCCCCCCCCCCCCCCCC(=O)NCCCNC(=O)CC[C@H](N)C(=O)NCC(=O)N(C)C1C(O)CC(N)C(OC2OC(C(C)N)CCC2N)C1O (stereo partly drawn) [Example 41, 2"-N-[N^γ -(3-lignocerolylaminopropyl)-L-glutaminyl]-5-de-O-methyl-KA-6606I] |  |  | 14.1 | 8 |
| CC(=O)NCCCC[C@H](N)C(=O)NCC(=O)N(C)C1C(O)CC(N)C(OC2OC(C(C)N)CCC2N)C1O (stereo partly drawn) [Example 1, 2"-N-(N^ε -acetyl-L-lysyl)-5-de-O-methyl-KA-6606I] |  |  | 25.1 | 14.1 |
| CCCCCCCC(=O)NCCCNC(=O)CC[C@H](N)C(=O)NCC(=O)N(C)C1C(O)CC(N)C(OC2OC(C(C)N)CCC2N)C1O (stereo partly drawn) [Example 37, 2"-N-[N^γ -(3-octanoylaminopropyl)-L-glutaminyl]-5-do-O-methyl-KA-6606I] |  |  | 25.1 | 14.1 |
| CC(N)C1CCC(N)C(OC2C(N)CC(O)C(N(C)C(=O)CNC(=O)[C@@H](N)CC(=O)OC(C)(C)C)C2O)O1 (stereo partly drawn) [Example 9, 2"-N-(β-O-tert.-butyl-L-aspartyl)-5-de-O-methyl-KA-6606I] |  |  | 23.2 | 12.7 |
| CCCCCCCCCC(=O)NCCCNC(=O)CC[C@H](N)C(=O)NCC(=O)N(C)C1C(O)CC(N)C(OC2OC(C(C)N)CCC2N)C1O (stereo partly drawn) [Example 38, 2"-N-[N^γ -(3-decanoylaminopropyl)-L-glutaminyl]-5-de-O-methyl-KA-6606I] |  |  | 23.9 | 17.1 |
| CCCCCCCCCC(=O)OCC(CCCCOC(=O)CC[C@H](N)C(=O)NCC(=O)N(C)C1C(O)CC(N)C(OC2OC(C(C)N)CCC2N)C1O)OC(=O)CCCCCCCCC (stereo partly drawn) [Example 23, 2"-N-{γ-[5,6-bis-(decanoyloxy)hexyl]-L-glutamyl}-5-de-O-methyl-KA-6606I] |  |  | 19.5 | 10.5 |
| CC(N)C1CCC(N)C(OC2C(N)CC(O)C(N(C)C(=O)CNC(=O)[C@@H](N)CCC(=O)OCCCCOC(=O)c3cccc4ccccc34)C2O)O1 (stereo partly drawn) [Example 21, 2"-N-{γ-O-[4-(α-naphthoyloxy)butyl]-L-glutamyl}-5-de-O-methyl-KA-6606I] |  |  | 22.6 | 15.1 |
